Data taken from the NIST ThermoML archive (doi:10.1016/j.jct.2019.02.006).
± gives the expanded uncertainty stated by the source.

Conditions: Liquid, Ebulliometric method (Recirculating still)

For CCCCCCC [heptane], the “vapor or sublimation pressure” value (371.53 K) was 101.3 ± 5.1 kPa.
For COC(=O)CCCCC(=O)OC [dimethyl 1,6-hexanedioate], the “vapor or sublimation pressure” value (390.98 K) was 2 ± 0.3 kPa, the “vapor or sublimation pressure” value (410.82 K) was 5.2 ± 0.3 kPa and the “vapor or sublimation pressure” value (422.47 K) was 8.3 ± 0.3 kPa.
In the case of COC(=O)CCCC(=O)OC [dimethyl pentanedioate], the “vapor or sublimation pressure” value (376.09 K) is reported as 2 ± 0.3 kPa, the “vapor or sublimation pressure” value (395.8 K) is reported as 5.2 ± 0.3 kPa and the “vapor or sublimation pressure” value (407.11 K) is reported as 8.3 ± 0.3 kPa.
For C1CCCCC1 [cyclohexane], the “vapor or sublimation pressure” value (353.94 K) was 101.3 ± 5.1 kPa.
In the case of COC(=O)CCC(=O)OC [dimethyl 1,4-butanedioate], the “vapor or sublimation pressure” value (363.39 K) is reported as 2 ± 0.3 kPa, the “vapor or sublimation pressure” value (382.13 K) is reported as 5.2 ± 0.3 kPa and the “vapor or sublimation pressure” value (393.49 K) is reported as 8.3 ± 0.3 kPa.
